Our source for the IC50 values is US20260234165A1, “MACROCYCLIC COMPOUNDS, PREPARATION METHOD THEREFOR, AND USE THEREOF” (GENFLEET THERAPEUTICS (SHANGHAI) INC., priority 2004, published 2026).

Where two headings read alike, the source gives them in different places.

Format in all cases: cell-based, human
Experiment [1] relates to p-ERK in NCI-H441 cells (KRAS G12V mutation). Put plainly: Cell p-ERK assay (HTRF) in NCI-H441 cells. Particulars: NCI-H441 cells, 3 h compound incubation, HTRF p-ERK T202/Y204, read-out: H441 p-ERK IC50. The procedure, abridged:
(§1)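 In this cellular format, endogenous KRAS-mutant lines grown in RPMI-1640 plus 10% FBS received graded compound concentrations for 3 h at 37 °C. Lysates were incubated 4 h with the phospho-T202/Y204 ERK HTRF antibody pair, and percent inhibition relative to DMSO and blank wells was curve-fitted to give IC50.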
A general note: In TR-FRET formats the signal depends on donor and acceptor labels being close together.

For experiment [2], the system named is p-ERK in AsPC-1 cells (KRAS G12D mutation). Put plainly: Cell p-ERK assay (HTRF) in AsPC-1 cells. As to conditions: AsPC-1 cells, 3 h compound incubation, HTRF p-ERK T202/Y204, read-out: AsPC-1 p-ERK IC50. The method in brief:
as §1

In experiment [3] the test system is AsPC-1 cells (KRAS G12D mutation). Put plainly: 3D cell proliferation assay (CellTiter Glo-3D), AsPC-1. As to conditions: medium with 2% FBS, read-out: AsPC-1 AP IC50. The procedure, abridged:
(§2)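 Proliferation of the KRAS-mutant lines NCI-H441 and AsPC-1 is measured over 5 days of compound treatment in medium with 2% FBS. Inhibition is computed from luminescence relative to DMSO and cell-free controls, and IC50 comes from a four-parameter curve.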

The next experiment deals with NCI-H441 cells. Put plainly: 3D cell proliferation assay (CellTiter Glo-3D), NCI-H441. As to conditions: medium with 2% FBS, read-out: H441 AP IC50. The procedure, abridged: as §2
(Cellular ATP, detected with luciferase, serves as a proxy for viable cell number.)

Setting [4] is: 3D cell proliferation (CellTiter Glo-3D).
[5] abbreviates: Homo sapiens, ASPC1, 3D cell proliferation (CellTiter Glo-3D).
Where [6] appears, read: Homo sapiens, NCI-H441, 3D cell proliferation (CellTiter Glo-3D).

For orientation: IC50 means the concentration at which inhibition is half-maximal. In the case of `CCn1c(-c2cc(C#CCN3CCCOCC3)c[n+]([O-])c2[C@H](C)OC)c2c3cc(ccc31)-c1csc(n1)C[C@H](NC(=O)[C@H]1[C@H](C)[C@@H]1C)C(=O)N1CCC[C@H](N1)C(=O)OCC(C)(C)C2` [Compound Z914, 5-(3-(1,4-oxazepan-4-yl)prop-1-yn-1-yl)-3-((6^3S,4S,Z)-4-((r,2R,3S)-2,3-dimethylcyclopropane-1-carboxamido)-1^1-ethyl-10,10-dimethyl-5,7-dioxo-6^1,6^2,6^3,6^4,6^5,6^6-hexahydro-1^1H-8-oxa-2(4,2)-thiazola-1(5,3)-indola-6(1.3)-pyridazinacycloundecaphane-1^2-yl)-2-((S)-1-methoxyethyl)pyridine-1-oxide], the concentration for half-maximal inhibition (IC50) in experiment [1] (Homo sapiens, NCI-H441, 3 h) turned out to be 0.46 nM; in experiment [2] (Homo sapiens, ASPC1, 3 h), 0.25 nM; in experiment [3] (setting [4]), 0.58 nM; in the experiment with NCI-H441 cells (setting [4]), 0.26 nM.

On to `CCn1c(-c2cc(C#CCN3CCCOCC3)cnc2[C@H](C)OC)c2c3cc(ccc31)-c1csc(n1)C[C@H](NC(=O)C[C@H]1CC1(F)F)C(=O)N1CCC[C@H](N1)C(=O)OCC(C)(C)C2` (atropisomer, axis not shown; (Ra)) [Compound Z932-2, N-((6^3S,4S,Z)—(Ra)-1^2-(5-(3-(1,4-oxazepan-4-yl)prop-1-yn-1-yl)-2-((S)-1-methoxyethyl)pyridin-3-yl)-1^1-ethyl-10,10-dimethyl-5,7-dioxo-6^1,6^2,6^3,6^4,6^5,6^6-hexahydro-1^1H-8-oxa-2(4,2)-thiazola-1(5,3)-indola-6(1,3)-pyridazinacycloundecaphane-4-yl)-2-((S)-2,2-difluorocyclopropyl)acetamide], for which the IC50 in experiment [1] (Homo sapiens, NCI-H441, 3 h) was 1.16 nM; in experiment [2] (Homo sapiens, ASPC1, 3 h), 2.62 nM; in experiment [3] (setting [5]), 5.52 nM; in the experiment on NCI-H441 cells (setting [6]), 2.32 nM.

Consider `CCn1c(-c2cc(C#CC(=O)N3CCCOCC3)cnc2[C@H](C)OC)c2c3cc(ccc31)-c1csc(n1)C[C@H](NC(=O)[C@H]1[C@H](C)[C@@H]1C)C(=O)N1CCC[C@H](N1)C(=O)OCC(C)(C)C2` (atropisomer, axis not shown; (Ra)) [Compound Z810, (1r,2R,3S)—N-((6^3S,4S,Z)-1^1-ethyl-(Ra)-1-(5-(3-(1,4-oxazepan-4-yl)-3-oxoprop-1-yn-1-yl)-2-((S)-1-methoxyethyl)pyridin-3-yl)-10,10-methyl-5,7-dioxo-6^1,6^2,6^3,6^4,6^5,6^6hexahydro-1^1H-8-oxa-2(4,2)-thiazola-1(5,3)-indola-6(1,3)-pyridazinacycloundecaphane-4-yl)-2,3-dimethylcyclopropane-1-carboxamide], for which the IC50 in experiment [1] amounted to 1.65 nM; in experiment [2], 1.35 nM; in experiment [3] (setting [5]), 3.22 nM; in the experiment on NCI-H441 cells (setting [6]) it was 1.83 nM.

`CO[C@@H](C)c1ncc(OCCN2CCS(=O)(=O)CC2)cc1-c1c2c3cc(ccc3n1C(C)C)-c1csc(n1)C[C@H](NC(=O)[C@H]1[C@H](C)[C@@H]1C)C(=O)N1CCC[C@H](N1)C(=O)OCC(C)(C)C2` (atropisomer, axis not shown; (Ra)) [Compound Z678, (1r,2R,3S)—N-((6^3S,4S,Z)—(Ra)-1^2-(5-(2-(1,1-dioxidothiomorpholino)ethoxy)-2-((S)-1-methoxyethyl)pyridin-3-yl)-1^1-isopropyl-10,10-dimethyl-5,7-dioxo-6^1,6^2,6^3,6^4,6^5,6^6-hexahydro-1^1H-8-oxa-2(4,2)-thiazola-1(5,3)-indola-6(1,3)-pyridazinacycloundecaphane-4-yl)-2,3-dimethylcyclopropane-1-carboxamide]: the IC50 in experiment [1] came out at 0.17 nM; in experiment [2], 0.06 nM; in experiment [3] (setting [4]) it was 0.17 nM; in the experiment with NCI-H441 cells (setting [4]), 0.06 nM.
